By IC50 is commonly meant the midpoint of a concentration-inhibition curve. Low readings indicate inhibition by little substance, high ones a need for much substance.

The values that follow come from patent US20130131121A1, “ANTI-VIRAL AGENT” (priority 2007, published 2013).

Values after ≈ are worked out from the molar mass of the structure shown.

Series [1] relates to human cytomegalovirus (HCMV). In words: Suppression of HCMV virus production in infected MRC-5 cells (plaque technique). The format is cell-based. The conditions noted are these: for EC50: Human betaherpesvirus 5, MRC5, HCMV proliferation in MRC-5 cells, read-out: EC50 (50% effective concentration); for SI (selection index): IC50/EC50.
Series [2] is described as follows: Cytotoxicity (IC50) of components separated from Kumazasa extract. The settings on record: human, MRC-5 human fetal lung fibroblast cells.
In series [3] the test system is influenza type B virus (B/Malaysia/2506/2004). As to the kind of experiment: Plaque technique in MDCK cells, influenza type B virus. The format is cell-based. The conditions noted are these: tricin concentration of 0.3 μg/ml.
The subject of series [4] is influenza type A virus (A/Hiroshima/52/2005, H3N2). As to the kind of experiment: Plaque technique in MDCK cells, influenza type A virus. The class given is cell-based. The settings on record: tricin concentration of 0.3 μg/ml.
A short description of another series: in vitro. The settings on record: human.

For `Oc1cccnc1` [3-hydroxy pyridine, 3-hydroxypyridine], in series [1], the EC50 amounted to 3.4 µg/mL (≈ 35.8 µM) and the “SI (selection index)” value came to 77.4. The same compound showed an IC50 in series [2] of 263 µg/mL (≈ 2770 µM).
On to `Nc1nc(O)c2ncn(COC(CO)CO)c2n1` [Ganciclovir, reference compound], for which the EC50 in series [1] was 0.3 to 0.8 µg/mL (≈ 1.18 to 3.13 µM).
In the case of `COc1cc(-c2cc(=O)c3c(O)cc(O)cc3o2)cc(OC)c1O` [Tricin, 5,7,4′-trihydroxy-3′,5′-dimethoxyflavone], in series [1], the EC50 was 1.7 µg/mL (≈ 5.15 µM) and the “SI (selection index)” value amounted to 1205.8. The “proliferation of the virus (virus titer)” value in series [1] (tricin concentration of 111 μg/ml, FIG. 4) is reported as “virtually completely inhibited”. Moreover, it took 2050 µg/mL (≈ 6210 µM) to reach half-maximal inhibition in series [2] (IC50). Moreover, the “proliferation suppression ratio (pt/pc×100%)” value in series [3] is listed as 48%. Moreover, in series [4], the “proliferation suppression ratio (pt/pc×100%)” value is recorded as 52%.
Turning to `COc1cc(C=O)ccc1O` [Vanillin, vanillin], in series [1], the EC50 came to 48 µg/mL (≈ 315 µM) and the “SI (selection index)” value is recorded as 4.5. The same compound came in with an IC50 in series [2] of 215 µg/mL (≈ 1410 µM).
For `O=C(O)/C=C/c1ccc(O)cc1` [p-coumaric acid, reference compound], in that order: 8.2 µg/mL (≈ 50 µM), 22.8 and 187 µg/mL (≈ 1140 µM).
Turning to `O=Cc1ccc(O)cc1` [p-hydroxybenzaldehyde], in series [1], the EC50 worked out at 12.8 µg/mL (≈ 105 µM) and the “SI (selection index)” value was determined as 23.8. Inhibition in the series “in vitro” was half-maximal at 305 µg/mL (≈ 2500 µM) (IC50).
